# Earlier results as cited in PubChem BioAssay AID1259409 (Chemical Carcinogenesis Research Information System (CCRIS), 2018).
# System: rodent chemically induced tumor inhibition, incidence and multiplicity
# Assay: CCRIS tumor inhibitor studies
smiles,measurement,setting,value
OCCOc1ccc(/C(=C(/CCCl)c2ccccc2)c2ccccc2)cc1,"tumour outcome (control, treated, inhibition, significance)","Carcinogen: 7,12-DIMETHYLBENZ[A]ANTHRACENE (DMBA) (57-97-6), Dose [Inhibitor]: 50 MG/KG/D FOR 37 WK (STUDY DURATION: 37 WK), Route [Inhibitor]: ORAL GAVAGE, Species: MOUSE, Strain/Sex: SENCAR/FEMALE, Target Tissue: Type of Lesion: MAMMARY: CARCINOMA, Dose [Carcinogen]: 20 UG/D FOR 6 WKS (STUDY DURATION: 37 WKS), Promoter: MEDROXYPROGESTERONE ACETATE (71-58-9)","10/21 (48%); 1/18 (6%), 88%, p=0.003"
same,"tumour outcome (control, treated, inhibition, significance)","Carcinogen: 7,12-DIMETHYLBENZ[A]ANTHRACENE (DMBA) [57-97-6], Dose [Inhibitor]: 50 MG/KG/D FOR 52 WK (STUDY DURATION: 52 WK), Route [Inhibitor]: ORAL GAVAGE, Species: MOUSE, Strain/Sex: SENCAR/FEMALE, Target Tissue: Type of Lesion: MAMMARY: CARCINOMA, Dose [Carcinogen]: 20 UG/D FOR 6 WKS, Promoter: MEDROXYPROGESTERONE ACETATE (71-58-9)","13/23 (57%); 1/20 (5%), 91%, p=0.0003"
N[C@@H](Cc1cc(I)c(Oc2cc(I)c(O)c(I)c2)c(I)c1)C(=O)O,outcome,"Carcinogen: N-METHYL-N-NITROSOUREA [684-93-5], Dose [Inhibitor]: 3 UG/ML IN DRINKING WATER, 2 WKS BEFORE CARCINOGEN AND FOR 26 WKS AFTER, Route [Inhibitor]: DRINKING WATER, Species: RAT, Strain/Sex: SPRAGUE-DAWLEY/FEMALE, Target Tissue: Type of Lesion: MAMMARY GLAND: CARCINOMA, Dose [Carcinogen]: 50 MG/KG BW ONCE AT 7 WKS OF AGE (IN SALINE SOLUTION)",8/11 (73%) vs 9/11 (82%) at 16 wks
C=C(C)[C@@H]1CC=C2C(=CC[C@]3(C)[C@@H](C(CCC=C(C)C)C(=O)O)[C@H](O)C[C@@]23C)[C@@]1(C)CCC(=O)O (stereo not given in full),"tumour outcome (control, treated, inhibition, significance)","Carcinogen: 7,12-DIMETHYLBENZ[A]ANTHRACENE, 57-97-6, Dose [Inhibitor]: 0, 0.2 UMOL 2/WK FOR 19 WK BEGINNING 1 WK POST CARCINOGEN DOSE (STUDY DURATION: 20 WK), Route [Inhibitor]: DERMAL, Species: MOUSE, Strain/Sex: ICR, Target Tissue: Type of Lesion: SKIN: PAPILLOMA, Dose [Carcinogen]: 50 UG ONCE, Promoter: 12-O-TETRADECANOYLPHORBOL-13-ACETATE, 16561-29-8","73%, 32%, 56%, not calculated"
same,"tumour outcome (control, treated, inhibition, significance)","Carcinogen: 7,12-DIMETHYLBENZ[A]ANTHRACENE, 57-97-6, Dose [Inhibitor]: 0, 0.2 UMOL IN 100 µL ACETONE:DMSO (9:1) 2/WK FOR 20 WK APPLIED 30 MIN PRIOR TO EACH CARCINOGEN DOSE (STUDY DURATION: 20, Route [Inhibitor]: DERMAL, Species: MOUSE, Strain/Sex: ICR/FEMALE, Target Tissue: Type of Lesion: SKIN: PAPILLOMA, Dose [Carcinogen]: 50 UG IN 100 µL ACETONE ONCE, Promoter: 12-O-TETRADECANOYLPHORBOL-13-ACETATE, 16561-29-8","73%, 33%, 55%, p<0.05"
O=c1c(-c2ccc(O)cc2)coc2cc(O)ccc12,"tumour outcome (control, treated, inhibition, significance)","Carcinogen: 7,12-DIMETHYLBENZ[A]ANTHRACENE (57-97-6), Dose [Inhibitor]: 105 MG/KG DIET FOR 17 WKS (STUDY DURATION: 17 WKS), Route [Inhibitor]: DIET, Species: RAT, Strain/Sex: SPRAGUE-DAWLEY/FEMALE (20,18)/(20,19), Target Tissue: Type of Lesion: MAMMARY, Dose [Carcinogen]: 12.5 MG ONCE 1 WK AFTER START OF DIET (STUDY DURATION: 17 WKS)","95%, 85%, 11%, p=0.366"
same,"tumour outcome (control, treated, inhibition, significance)","Carcinogen: N-METHYL-N-NITROSOUREA, 684-93-5, Dose [Inhibitor]: 0, 1 MG/30 G BW 1/4 WK FOR 25 WK BEGINNING 5 WK POST CARCINOGEN TREATMENT (STUDY DURATION: 30 WK), Route [Inhibitor]: SUBCUTANEOUS, Species: MOUSE, Strain/Sex: ICR/FEMALE, Target Tissue: Type of Lesion: UTERUS (LEFT): ADENOCARCINOMA, Dose [Carcinogen]: 0.1 MG/KG BW INJECTED INTO LEFT UTERINE TUBE ONCE","3/26 (11%), 0/14 (0%), 100%, not significant"
same,"tumour outcome (control, treated, inhibition, significance)","Carcinogen: N-METHYL-N-NITROSOUREA, 684-93-5, Dose [Inhibitor]: 0, 1 MG/30 G BW 1/4 WK FOR 25 WK BEGINNING 5 WK POST CARCINOGEN TREATMENT (STUDY DURATION: 30 WK), Route [Inhibitor]: SUBCUTANEOUS, Species: MOUSE, Strain/Sex: ICR/FEMALE, Target Tissue: Type of Lesion: UTERUS (LEFT): ADENOCARCINOMA, Dose [Carcinogen]: 0.1 MG/KG BW INJECTED INTO LEFT UTERINE TUBE ONCE, Promoter: 17-BETA-ESTRADIOL, 50-28-2","8/24 (33%), 1/23 (4%), 87%, p<0.05"
CC(C)=CCC/C(C)=C/COc1ccc2ccc(=O)oc2c1,"tumour outcome (control, treated, inhibition, significance)","Carcinogen: AZOXYMETHANE, 25843-45-2, Dose [Inhibitor]: 0, 0.01% IN DIET FOR 4 WK BEGINNING 1 WK PRIOR TO CARCINOGEN TREATMENT (STUDY DURATION: 38 WK), Route [Inhibitor]: ORAL, Species: RAT, Strain/Sex: F344/MALE, Target Tissue: Type of Lesion: COLON: ADENOCARCINOMA, Dose [Carcinogen]: 15 MG/KG BW 1/WK FOR 3 WK, Promoter: NONE","60%, 34%, 43%, not significant"
same,"tumour outcome (control, treated, inhibition, significance)","Carcinogen: AZOXYMETHANE, 25843-45-2, Dose [Inhibitor]: 0, 0.01% IN DIET FOR 34 WK BEGINNING 1 WK POST LAST CARCINOGEN DOSE (STUDY DURATION: 38 WK), Route [Inhibitor]: ORAL, Species: RAT, Strain/Sex: F344/MALE, Target Tissue: Type of Lesion: COLON: ADENOCARCINOMA, Dose [Carcinogen]: 15 MG/KG BW 1/WK FOR 3 WK, Promoter: NONE","60%, 24%, 60%, p<0.021"
same,"tumour outcome (control, treated, inhibition, significance)","Carcinogen: AZOXYMETHANE, 25843-45-2, Dose [Inhibitor]: 0, 0.05% IN DIET FOR 4 WK BEGINNING 1 WK PRIOR TO CARCINOGEN TREATMENT (STUDY DURATION: 38 WK), Route [Inhibitor]: ORAL, Species: RAT, Strain/Sex: F344/MALE, Target Tissue: Type of Lesion: COLON: ADENOCARCINOMA, Dose [Carcinogen]: 15 MG/KG BW 1/WK FOR 3 WK, Promoter: NONE","60%, 20%, 67%, p<0.0075"
same,"tumour outcome (control, treated, inhibition, significance)","Carcinogen: AZOXYMETHANE, 25843-45-2, Dose [Inhibitor]: 0, 0.05% IN DIET FOR 34 WK BEGINNING 1 WK POST LAST CARCINOGEN DOSE (STUDY DURATION: 38 WK), Route [Inhibitor]: ORAL, Species: RAT, Strain/Sex: F344/MALE, Target Tissue: Type of Lesion: COLON: ADENOCARCINOMA, Dose [Carcinogen]: 15 MG/KG BW 1/WK FOR 3 WK, Promoter: NONE","60%, 20%, 67%, p<0.0075"
same,"tumour outcome (control, treated, inhibition, significance)","Carcinogen: DIETHYLNITROSAMINE [55-18-5], Dose [Inhibitor]: 500 PPM IN DIET FOR 7 WKS, STARTING 1 WK BEFORE CARCINOGEN (STUDY DURATION: 32 WKS), Route [Inhibitor]: DIET, Species: RAT, Strain/Sex: F344/MALE, Target Tissue: Type of Lesion: LIVER: ADENOMA, Dose [Carcinogen]: 40 PPM FOR 5 WKS (STUDY DURATION: 32 WKS)","46%, 46%, 0%"
same,"tumour outcome (control, treated, inhibition, significance)","Carcinogen: DIETHYLNITROSAMINE [55-18-5], Dose [Inhibitor]: 500 PPM IN DIET FOR 7 WKS, STARTING 1 WK BEFORE CARCINOGEN (STUDY DURATION: 32 WKS), Route [Inhibitor]: DIET, Species: RAT, Strain/Sex: F344/MALE, Target Tissue: Type of Lesion: LIVER: CARCINOMA, Dose [Carcinogen]: 40 PPM FOR 5 WKS (STUDY DURATION: 32 WKS)","100%, 63%, 37%"
same,"tumour outcome (control, treated, inhibition, significance)","Carcinogen: DIETHYLNITROSAMINE [55-18-5], Dose [Inhibitor]: 500 PPM IN DIET FOR 25 WKS BEGINNING 1 WK AFTER END OF CARCINOGEN TREATMENT, Route [Inhibitor]: DIET, Species: RAT, Strain/Sex: F344/MALE, Target Tissue: Type of Lesion: LIVER: ADENOMA, Dose [Carcinogen]: 40 PPM FOR 5 WKS (STUDY DURATION: 32 WKS)","46%, 42%, 8.7%"
same,"tumour outcome (control, treated, inhibition, significance)","Carcinogen: DIETHYLNITROSAMINE [55-18-5], Dose [Inhibitor]: 500 PPM IN DIET FOR 25 WKS BEGINNING 1 WK AFTER END OF CARCINOGEN TREATMENT, Route [Inhibitor]: DIET, Species: RAT, Strain/Sex: F344/MALE, Target Tissue: Type of Lesion: LIVER: CARCINOMA, Dose [Carcinogen]: 40 PPM FOR 5 WKS (STUDY DURATION: 32 WKS)","100%, 33%, 67%"
CCCCc1cccs1,"tumour outcome (control, treated, inhibition, significance)","Carcinogen: BENZO[A]PYRENE, 50-32-8, Dose [Inhibitor]: 0, 45 UMOL IN 0.2 ML COTTONSEED OIL 3/WK FOR 4 WK BEGINNING 1 DAY PRIOR TO FIRST CARCINOGEN DOSE AND TERMINATING 1 DAY A, Route [Inhibitor]: GAVAGE, Species: MOUSE, Strain/Sex: STRAIN-A/FEMALE, Target Tissue: Type of Lesion: FORESTOMACH: TUMOR, Dose [Carcinogen]: 1 MG 2/WK FOR 4 WK, Promoter: NONE USED","14/17 (82%), 9/18 (50%), 39%, p<0.05"
same,"tumour outcome (control, treated, inhibition, significance)","Carcinogen: BENZO[A]PYRENE, 50-32-8, Dose [Inhibitor]: 0, 45 UMOL IN 0.2 ML COTTONSEED OIL 3/WK FOR 4 WK BEGINNING 1 DAY PRIOR TO FIRST CARCINOGEN DOSE AND TERMINATING 1 DAY A, Route [Inhibitor]: GAVAGE, Species: MOUSE, Strain/Sex: STRAIN-A/FEMALE, Target Tissue: Type of Lesion: LUNG: TUMOR, Dose [Carcinogen]: 1 MG 2/WK FOR 4 WK, Promoter: NONE USED","17/17 (100%), 18/18 (100%), 0%, not significant"
same,"tumour outcome (control, treated, inhibition, significance)","Carcinogen: BENZO[A]PYRENE, 50-32-8, Dose [Inhibitor]: 0, 90 UMOL IN 0.2 ML COTTONSEED OIL 3/WK FOR 4 WK BEGINNING 1 DAY PRIOR TO FIRST CARCINOGEN DOSE AND TERMINATING 1 DAY A, Route [Inhibitor]: GAVAGE, Species: MOUSE, Strain/Sex: STRAIN-A/FEMALE, Target Tissue: Type of Lesion: FORESTOMACH: TUMOR, Dose [Carcinogen]: 1 MG 2/WK FOR 4 WK, Promoter: NONE USED","14/17 (82%), 9/13 (69%), 16%, not significant"
same,"tumour outcome (control, treated, inhibition, significance)","Carcinogen: BENZO[A]PYRENE, 50-32-8, Dose [Inhibitor]: 0, 90 UMOL IN 0.2 ML COTTONSEED OIL 3/WK FOR 4 WK BEGINNING 1 DAY PRIOR TO FIRST CARCINOGEN DOSE AND TERMINATING 1 DAY A, Route [Inhibitor]: GAVAGE, Species: MOUSE, Strain/Sex: STRAIN-A/FEMALE, Target Tissue: Type of Lesion: LUNG: TUMOR, Dose [Carcinogen]: 1 MG 2/WK FOR 4 WK, Promoter: NONE USED","17/17 (100%), 13/13 (100%), 0%, not significant"
